Measured values reported in patent US20250206758A1, “SUBSTITUTED BRIDGED RING INHIBITOR, PREPARATION METHOD THEREFOR AND APPLICATION THEREOF” (SUZHOU ZELGEN BIOPHARMACEUTICALS CO., LTD., priority 2022, published 2025).
Read-outs that look alike come from different tables or passages of the source. Each block holds one compound with its values, some of them ahead of it.

Columns and labels:
[1] = tested on: AsPC-1; experiment: Cell proliferation inhibition, AsPC-1 (CellTiter-Glo 3D, 7 days); type: cell-based; settings: AsPC-1, 7 days
Procedure: (§1) • (a) Resuscitating cells in T75 cell culture flask: • (b) When the cell confluence reaches 80-90%, subculturing the cells.
(§2) The diluted test compound was added to a 384-well cell culture plate with a nanoliter pipetting system, and duplicate wells were set up. An equal volume of culture medium was added to the positive control group; and an equal volume of DMSO was added to the negative control group, then centrifugation was conducted at 1000 rpm for 1 min at room temperature.
(§3) Cells were inoculated into a) 384-well culture plate, with an equal volume of cells added to the negative control group, and only an equal volume of culture medium added to the positive control group. The plate was centrifuged at 1000 rpm for 1 min at room temperature, and the final DMSO concentration of the compound was 0.5% at last. The plate was placed in a 37° C., 5% CO2 constant temperature incubator for 7 days.
(§4) 20 μL/well of CellTiter-Glo® 3D to b) was added to 384-well cell culture plate, and the plate was shook at 320 rpm for 20 min in the dark, and incubated at room temperature in the dark for 2 hrs.
(§5) The luminescence value was read using an Envision multi-functional microplate reader.
(§6) The inhibition rate (IR) of the test compound was calculated using the following formula: IR (%)=(1−(RLU compound−RLU blank control)/(RLU meidum control−RLU blank control))*100%. The inhibition rates of different concentrations of compounds were calculated in Excel, and then the inhibition curves were plotted and the related parameters (including the minimum inhibition rate, maximum inhibition rate and IC50) were calculated using GraphPad Prism software.

[2] = tested on: GP2D; experiment: Cell proliferation inhibition, GP2D (CellTiter-Glo 3D, 7 days); type: cell-based
Procedure: as §1, §2, §3, §4, §5, §6

IC50 [1]: 4.11 nM
Compound: C#Cc1c(F)ccc2cc(O)cc(-c3ncc4c(N5C[C@H]6CC[C@@](C)(C5)N6)nc(OC[C@@]56CCCN5C[C@@]5(CC5(F)F)C6)nc4c3F)c12 [Example 20A, 4-(2-(((1S,7a'S)-2,2-difluorodihydro-1′H,3′H-spiro[cyclopropan-1,2′-pyrrolizin]-7a′(5′H)-yl)methoxy)-8-fluoro-4-((1S,5R)-1-methyl-3,8-diazabicyclo[3.2.1]octan-3-yl)pyridino[4,3-d]pyrimidin-7-yl)-5-ethynyl-6-fluoronaphthol-2-ol]
IC50 [2]: 0.44 nM

Compound: N#Cc1cc(N)cc(-c2ncc3c(N4C[C@H]5CC[C@@H](C4)N5)nc(OC[C@@]45CCCN4C[C@@]4(CC4(F)F)C5)nc3c2F)c1Cl [Example 48, 3-(4-((1R,5S)-3,8-diazabicyclo[3.2.1]octan-3-yl)-2-(((1S,7a'S)-2,2-difluorodihydro-1′H,3′H-spiro[cyclopropan-1,2′-pyrrolizin]-7a′(5′H)-yl)methoxy)-8-fluoropyridino[4,3-d]pyrimidin-7-yl)-5-amino-2-chlorobenzonitrile]
IC50 ([1]; Homo sapiens, ASPC1, 168 h): 779 nM
IC50 ([2]; 168 h): 66 nM

Compound: COc1c(-c2cc(N)cc(Cl)c2C(F)(F)F)ncc2c(N3C[C@H]4CC[C@@H](C3)N4)nc(OC[C@@]34CCCN3C[C@@]3(CC3(F)F)C4)nc12 [Example 31, 3-(4-((1R,5S)-3,8-diazabicyclo[3.2.1]octan-3-yl)-2-(((1S,7a'S)-2,2-difluorodihydro-1′H,3′H-spiro[cyclopropan-1,2′-pyrrolizin]-7a′(5′H)-yl)methoxy)-8-methoxypyridino[4,3-d]pyrimidin-7-yl)-5-chloro-4-(trifluoromethyl)aniline]
IC50 ([1]; Homo sapiens, ASPC1, 168 h): 259 nM
IC50 ([2]; 168 h): 24.3 nM

Compound: C#Cc1c(F)ccc2cc(O)cc(-c3ncc4c(N5C[C@H]6CC[C@@H](C5)N6)nc(OC[C@@]56C[C@@H](F)CN5C[C@@]5(CC5(F)F)C6)nc4c3F)c12 [Example 15C, 4-(4-((1R,5S)-3,8-diazabicyclo[3.2.1]octan-3-yl)-8-fluoro-2-(((1S,6′R,7a′R)-2,2,6′-trifluorodihydro-1′H,3′H-spiro[cyclopropan-1,2′-pyrrolizin]-7a′(5′H)-yl)methoxy)pyridino[4,3-d]pyrimidin-7-yl)-5-ethynyl-6-fluoronaphthalen-2-ol]
IC50 ([1]; Homo sapiens, ASPC1, 168 h): 60.6 nM
IC50 ([2]; 168 h): 12.1 nM

Compound: CC(=O)Nc1cc(Cl)c(C(F)(F)F)c(-c2ncc3c(N4C[C@H]5CC[C@@H](C4)N5)nc(OC[C@@]45CCCN4C[C@@]4(CC4(F)F)C5)nc3c2F)c1 [Example 38, N-(3-(4-((1R,5S)-3,8-diazabicyclo[3.2.1]octan-3-yl)-2-(((1S,7a'S)-2,2-difluorodihydro-1′H,3′H-spiro[cyclopropan-1,2′-pyrrolizin]-7a′(5′H)-yl)methoxy)-8-fluoropyridino[4,3-d]pyrimidin-7-yl)-5-chloro-4-(trifluoromethyl)phenyl)acetamide]
IC50 ([1]; Homo sapiens, ASPC1, 168 h): 142 nM
IC50 ([2]; 168 h): 14.1 nM

Compound: C#Cc1c(F)ccc2cc(O)cc(-c3ncc4c(N5C[C@H]6CC[C@@H](C5)N6)nc(OC[C@]56CCCN5C[C@]5(CC5(F)F)C6)nc4c3F)c12 [Example 16B-2, 4-(4-((1R,5S)-3,8-diazabicyclo[3.2.1]octan-3-yl)-2-(((1R,7a′R)-2,2-difluorodihydro-1′H,3′H-spiro[cyclopropan-1,2′-pyrrolizin]-7a′(5′H)-yl)methoxy)-8-fluoropyridino[4,3-d]pyrimidin-7-yl)-5-ethynyl-6-fluoronaphthalen-2-ol]
IC50 ([1]; Homo sapiens, ASPC1, 168 h): 9.22 nM
IC50 ([2]; 168 h): 1.55 nM

Compound: C#Cc1c(F)ccc2cc(O)cc(-c3ncc4c(N5C[C@H]6CC[C@@H](C5)N6)nc(OC[C@@]56C[C@@H](F)CN5C[C@]5(CC5(F)F)C6)nc4c3F)c12 [Example 15D, 4-(4-((1R,5S)-3,8-diazabicyclo[3.2.1]octan-3-yl)-8-fluoro-2-(((1R,6′R,7a′R)-2,2,6′-trifluorodihydro-1′H,3′H-spiro[cyclopropan-1,2′-pyrrolizin]-7a′(5′H)-yl)methoxy)pyridino[4,3-d]pyrimidin-7-yl)-5-ethynyl-6-fluoronaphthalen-2-ol]
IC50 ([1]; Homo sapiens, ASPC1, 168 h): 177 nM
IC50 ([2]; 168 h): 44.5 nM

Compound: CCc1c(F)ccc2cc(O)cc(-c3ncc4c(N5CC6CCC(C5)N6)nc(OC[C@]56CCCN5C[C@]5(CC5(F)F)C6)nc4c3F)c12 [Example 17B]
IC50 ([1]; Homo sapiens, ASPC1, 168 h): 7.84 nM
IC50 ([2]; 168 h): 1.15 nM

Compound: CS(=O)(=O)Nc1cc(Cl)c(C(F)(F)F)c(-c2ncc3c(N4C[C@H]5CC[C@@H](C4)N5)nc(OC[C@@]45CCCN4C[C@@]4(CC4(F)F)C5)nc3c2F)c1 [Example 39, N-(3-(4-((1R,5S)-3,8-diazabicyclo[3.2.1]octan-3-yl)-2-(((1S,7a'S)-2,2-difluorodihydro-1′H,3′H-spiro[cyclopropan-1,2′-pyrrolizin]-7a′(5′H)-yl)methoxy)-8-fluoropyridino[4,3-d]pyrimidin-7-yl)-5-chloro-4-(trifluoromethyl)phenyl)methanesulfonamide]
IC50 ([1]; Homo sapiens, ASPC1, 168 h): 521 nM
IC50 ([2]; 168 h): 38.3 nM

Compound: N#Cc1cc(N)cc(-c2ncc3c(N4C[C@H]5CC[C@@H](C4)N5)nc(OC[C@@]45CCCN4C[C@@]4(CC4(F)F)C5)nc3c2F)c1C(F)(F)F [Example 43, 3-(4-((1R,5S)-3,8-diazabicyclo[3.2.1]octan-3-yl)-2-(((1S,7a'S)-2,2-difluorodihydro-1′H,3′H-spiro[cyclopropan-1,2′-pyrrolizin]-7a′(5′H)-yl)methoxy)-8-fluoropyridino[4,3-d]pyrimidin-7-yl)-5-amino-2-(trifluoromethyl)benzonitrile]
IC50 ([1]; Homo sapiens, ASPC1, 168 h): 115 nM
IC50 ([2]; 168 h): 4.17 nM

Compound: COc1c(-c2c(F)c(N)cc(C)c2C(F)(F)F)ncc2c(N3C[C@H]4CC[C@@H](C3)N4)nc(OC[C@@]34CCCN3C[C@@]3(CC3(F)F)C4)nc12 [Example 30, 3-(4-((1R,5S)-3,8-diazabicyclo[3.2.1]octan-3-yl)-2-(((1S,7a'S)-2,2-difluorodihydro-1′H,3′H-spiro[cyclopropan-1,2′-pyrrolizin]-7a′(5′H)-yl)methoxy)-8-methoxypyridino[4,3-d]pyrimidin-7-yl)-2-fluoro-5-methyl-4-(trifluoromethyl)aniline]
IC50 ([1]; Homo sapiens, ASPC1, 168 h): > 1000 nM
IC50 ([2]; 168 h): > 100 nM

Compound: C#Cc1c(F)ccc2cc(O)cc(-c3ncc4c(N5C[C@H]6CC[C@@H](C5)N6)nc(OC[C@@]56C[C@H](F)CN5C[C@]5(CC5(F)F)C6)nc4c3F)c12 [Example 15H, 4-(4-((1R,5S)-3,8-diazabicyclo[3.2.1]octan-3-yl)-8-fluoro-2-(((1R,6'S,7a′R)-2,2,6′-trifluorodihydro-1′H,3′H-spiro[cyclopropan-1,2′-pyrrolizin]-7a′(5′H)-yl)methoxy)pyridino[4,3-d]pyrimidin-7-yl)-5-ethynyl-6-fluoronaphthalen-2-ol]
IC50 ([1]; Homo sapiens, ASPC1, 168 h): 226 nM
IC50 ([2]; 168 h): 9.3 nM

Compound: Cc1cc(N)nc(-c2ncc3c(N4CC5CCC(C4)N5)nc(OC[C@@]45CCCN4C[C@@]4(CC4(F)F)C5)nc3c2F)c1C(F)(F)F [Example 18, 6-(4-((1R,5S)-3,8-diazabicyclo[3.2.1]octan-3-yl)-2-(((trans)-2,2-difluorodihydro-1′H,3′H-spiro[cyclopropan-1,2′-pyrrolizin]-7a′(5′H)-yl)methoxy)-8-fluoropyridino[4,3d]pyrimidin-7-yl)-4-methyl-5-(trifluoromethyl)pyridin-2-amine]
IC50 ([1]; Homo sapiens, ASPC1, 168 h): 307 nM
IC50 ([2]; 168 h): 9.83 nM
